Several values for one entry are separate records, joined by “and”; a condition that tells them apart may be missing. Equal entries are not always repeated.
Legend:
Assay type in all cases: biochemical
hLPCAT2 [1] = target: T1, hLPCAT2 (Homo sapiens, UniProt Q7L5N7); assay: acyltransferase activity assay, 16:0/20:4 alkyl-PC product by LC-MS/MS; conditions: 0, 0.2, 0.6, 2, 6 and 20 μM of each compound in triplicate; LC-MS/MS; read-out: IC50, product Alkyl-PC (16:0/20:4 alkyl-PC), enzyme hLPCAT2
T1 construct: expressed in transfected cells; host or cells: CHO-S-PAFR cells (microsomal fraction), with or without mcPAF stimulation
T1 sequence (Q7L5N7 1-544): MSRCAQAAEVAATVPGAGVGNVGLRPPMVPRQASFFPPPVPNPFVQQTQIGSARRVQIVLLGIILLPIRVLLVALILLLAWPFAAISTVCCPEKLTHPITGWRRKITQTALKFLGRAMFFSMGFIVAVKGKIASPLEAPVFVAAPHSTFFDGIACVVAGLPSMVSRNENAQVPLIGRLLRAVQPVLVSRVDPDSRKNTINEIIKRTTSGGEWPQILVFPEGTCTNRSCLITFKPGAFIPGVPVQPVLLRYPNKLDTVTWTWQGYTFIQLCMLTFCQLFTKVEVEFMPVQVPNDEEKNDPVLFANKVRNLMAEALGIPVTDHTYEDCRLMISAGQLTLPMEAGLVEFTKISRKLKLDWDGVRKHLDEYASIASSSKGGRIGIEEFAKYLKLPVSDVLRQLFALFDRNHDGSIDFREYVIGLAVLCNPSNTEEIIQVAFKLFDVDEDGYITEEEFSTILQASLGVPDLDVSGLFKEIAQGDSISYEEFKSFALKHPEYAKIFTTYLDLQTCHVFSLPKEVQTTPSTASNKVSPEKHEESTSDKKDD
Experimental: (§1) Microsomal protein fractions (0.5 μg) supplemented with the indicated compound concentrations were added to the reaction mixture containing 100 mM Tris-HCl (pH 7.4), 1 μM CaCl2, 0.015% Tween-20, and two substrates. For acetyltransferase activity, the substrates were 1 mM acetyl-CoA and 5 μM d4-lyso-PAF; for the acyltransferase activity of LPCAT1 or LPCAT2, the substrates were, respectively, palmitoyl-CoA and d31-16:0 LPC or arachidonoyl-CoA and d4-lyso-PAF (all 5 μM). Each lysophospholipid contained fatty acid at the sn-1 position. After incubation at 37°C for 5 min, the reactions were stopped by adding 300 μl methanol containing 17:0 LPC or 14:0/14:0 PC as an internal standard. Deuterium-labeled products were analyzed by LC-MS/MS (Waters, Milford, MA and Thermo Scientific, Waltham, MA). […]
(§2) Steps 2 to 5 screening: 96-well plate assay
(§3) Acetyltransferase and acyltransferase assays were developed in 96-well plates. The microsomal hLPCAT2, obtained from mcPAF-stimulated CHO-S-PAFR cells was used in steps 1, 2, and 5. The microsomal hLPCAT1 obtained from unstimulated CHO-S cells was used in steps 3 to 5. Each well of the 96-well plates contained 30 µl of 15 µg/ml protein, 600 nl of 2 mM compound, 30 µl buffer C, and two substrates (Fig. 1B and C).
(§4) Substrate concentrations were as follows: acetyl-CoA, 250 or 1000 µM acetyl-CoA; […]
(§5) arachidonoyl-CoA, 5 µM; palmitoyl-CoA, 5 µM; d4-lyso-PAF, 5 µM; and d31-LPC, 5 µM.
(§6) For step 5, compound concentrations were 0, 0.167, 0.67, 2, 6.7, and 20 µM. The deuterium-labeled products were measured by LC-MS/MS. Percentage inhibition (steps 2 to 4) or IC50 (step 5) was used as the hit criterion. […]
(§7) Step 7 screening: species-specific differences
(§8) To evaluate the effects on the activity of mouse or human LPCAT1 and LPCAT2, each microsomal fraction was obtained using CHO-S-PAFR cells with or without mcPAF (200 nM) stimulation for 5 min. Acetyltransferase and acyltransferase assays were performed with 20 µM of each compound. Percentage inhibition was calculated in each

hLPCAT1 [2] = target: T2, hLPCAT1 (Homo sapiens, UniProt Q8NF37); assay: lyso-PAFAT (acetyltransferase) activity assay, PAF product by LC-MS/MS; conditions: 0, 0.2, 0.6, 2, 6 and 20 μM of each compound in triplicate; LC-MS/MS; read-out: IC50, product PAF, enzyme hLPCAT1
T2 construct: expressed in transfected cells
T2 sequence (Q8NF37 1-534): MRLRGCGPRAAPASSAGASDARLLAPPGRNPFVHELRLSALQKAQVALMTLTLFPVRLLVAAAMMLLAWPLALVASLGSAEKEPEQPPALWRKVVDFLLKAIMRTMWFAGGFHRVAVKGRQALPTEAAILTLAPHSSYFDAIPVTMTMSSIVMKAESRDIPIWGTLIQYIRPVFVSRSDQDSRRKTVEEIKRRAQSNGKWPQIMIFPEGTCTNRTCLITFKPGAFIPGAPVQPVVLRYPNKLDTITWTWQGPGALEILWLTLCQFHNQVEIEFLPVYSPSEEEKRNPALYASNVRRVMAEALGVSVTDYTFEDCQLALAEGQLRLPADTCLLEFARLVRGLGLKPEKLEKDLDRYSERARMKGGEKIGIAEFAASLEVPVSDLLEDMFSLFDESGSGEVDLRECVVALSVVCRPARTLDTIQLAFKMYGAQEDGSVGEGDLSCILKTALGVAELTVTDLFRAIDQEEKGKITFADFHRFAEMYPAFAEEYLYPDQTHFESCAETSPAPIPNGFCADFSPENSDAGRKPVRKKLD
Experimental: as §1, §2, §3, §4, §5, §6, §7, §8

hLPCAT2 [3] = target: T1, hLPCAT2; assay: as above; conditions: 0, 0.2, 0.6, 2, 6 and 20 μM of each compound in triplicate; LC-MS/MS; read-out: IC50, product PAF, enzyme hLPCAT2
Experimental: as §1, §2, §3, §4, §5
For step 5, compound concentrations were 0, 0.167, 0.67, 2, 6.7, and 20 µM. The deuterium-labeled products were measured by LC-MS/MS. Percentage inhibition (steps 2 to 4) or IC50 (step 5) was used as the hit criterion.
Step 6 screening: BSA assay
The acetyltransferase assay was performed with 20 µM of each compound and microsomal hLPCAT2 from step 1. The assay mixture contained 0.4% BSA and two substrates for lyso-PAFAT activity: 1 mM acetyl-CoA and 5 µM d4-lyso-PAF. Percentage inhibition values were determined.
as §7, §8

hLPCAT1 [4] = target: T2, hLPCAT1; assay: acyltransferase activity assay, DPPC product by LC-MS/MS; conditions: 0, 0.2, 0.6, 2, 6 and 20 μM of each compound in triplicate; LC-MS/MS; read-out: IC50, product DPPC, enzyme hLPCAT1
Experimental: as §1, §2, §3, §4, §5, §6, §7, §8

IC50 (hLPCAT2 [1]) [µM]	IC50 (hLPCAT1 [2]) [µM]	IC50 (hLPCAT2 [3])	IC50 (hLPCAT1 [4]) [µM]	SMILES
> 20	> 20	> 20 µM	> 20	CC(C)OC(=O)c1ccc(N2C(=O)C(Cl)=C(N3CCOCC3)C2=O)cc1 [TSI-06]
7.58	> 20	> 20 µM	> 20	COc1ccc(N2C(=O)C(Cl)=C(Oc3ccccc3OC)C2=O)cc1 [TSI-05]

Further lines, the molecule ahead of its results:

SMILES	IC50 (hLPCAT2 [1]) [µM]	IC50 (hLPCAT1 [2]) [µM]	IC50 (hLPCAT2 [3])	IC50 (hLPCAT1 [4]) [µM]
COC(=O)c1ccc(N2C(=O)C(Cl)=C(Nc3ccc(S(N)(=O)=O)cc3)C2=O)cc1 [TSI-08]	> 20	> 20	> 20 µM	> 20
COc1ccc(Cl)cc1N1C(=O)C(Cl)=C(Cl)C1=O [TSI-03]	17.1	9.38	> 10 µM and 12.1 µM	> 20
COc1ccc(Cl)cc1N1C(=O)C(Cl)=C(Nc2ccccc2O)C1=O [TSI-04]	> 20	7.79	> 10 µM and 16.3 µM	> 20
CCN1C(=O)C=CC1=O [N-ethylmaleimide (NEM), N-ethylmaleimide, reference compound]	69.6	1720	106 µM	1850
COC(=O)c1ccc(N2C(=O)C(Cl)=C(Cl)C2=O)cc1 [TSI-09]	11.6	10.1	3.5 µM	> 20

From paper PMC4076079, “Selective inhibitors of a PAF biosynthetic enzyme lysophosphatidylcholine acyltransferase 2” (Journal of Lipid Research, 2014)
